Laboratory results as given in PMC7270175, “Micelle-stabilized Olfactory Receptors for a Bioelectronic Nose Detecting Butter Flavors in Real Fermented Alcoholic Beverages” (Scientific Reports, 2020).

Molecular target: T1, ODR-10 (Caenorhabditis elegans, UniProt Q18807)
T1 construct: ODR-10 in pET-DEST42 (V5 and Ni-column purification tag), E. coli BL21(DE3), SDS-solubilized, reconstituted in DDM/Cymal 6 detergent micelles; also pcDNA3 ODR-10 in HEK-293 cells
T1 sequence (Q18807 1-339): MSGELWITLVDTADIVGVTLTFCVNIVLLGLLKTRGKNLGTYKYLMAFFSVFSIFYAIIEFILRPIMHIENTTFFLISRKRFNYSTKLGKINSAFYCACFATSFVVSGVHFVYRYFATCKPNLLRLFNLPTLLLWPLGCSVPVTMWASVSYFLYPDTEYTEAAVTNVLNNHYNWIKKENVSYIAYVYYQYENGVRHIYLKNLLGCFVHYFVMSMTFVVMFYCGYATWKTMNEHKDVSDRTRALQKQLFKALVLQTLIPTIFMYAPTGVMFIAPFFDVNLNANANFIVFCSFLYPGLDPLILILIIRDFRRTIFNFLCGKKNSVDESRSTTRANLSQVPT
Experiment: carbon nanotube FET, Hill fit of conductance response
Type: binding
Conditions: read-out: K

Compound `CC(=O)C(C)=O` [Diacetyl, 2,3-butanedione] has a Kd of about 1.7 pM.
